Reference: PubChem BioAssay AID2198 (Vanderbilt High Throughput Screening Facility, 2009)
Activity calls are given as the source filed them.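 How the source made its calls: active means mean EC50 under 30 µM; inactive means the rest.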

Each molecule was assayed against Muscarinic acetylcholine receptor M5 (Homo sapiens) (UniProt P08912) (assay: human M5 positive allosteric modulators, SAR follow-up, cell-based, calcium (AID 2198)). Settings: CHO-K1 hM5, Fluo-4 calcium, ACh EC20 potentiation.
Muscarinic acetylcholine receptor M5 (Homo sapiens), sequence (P08912 whole entry, looked up): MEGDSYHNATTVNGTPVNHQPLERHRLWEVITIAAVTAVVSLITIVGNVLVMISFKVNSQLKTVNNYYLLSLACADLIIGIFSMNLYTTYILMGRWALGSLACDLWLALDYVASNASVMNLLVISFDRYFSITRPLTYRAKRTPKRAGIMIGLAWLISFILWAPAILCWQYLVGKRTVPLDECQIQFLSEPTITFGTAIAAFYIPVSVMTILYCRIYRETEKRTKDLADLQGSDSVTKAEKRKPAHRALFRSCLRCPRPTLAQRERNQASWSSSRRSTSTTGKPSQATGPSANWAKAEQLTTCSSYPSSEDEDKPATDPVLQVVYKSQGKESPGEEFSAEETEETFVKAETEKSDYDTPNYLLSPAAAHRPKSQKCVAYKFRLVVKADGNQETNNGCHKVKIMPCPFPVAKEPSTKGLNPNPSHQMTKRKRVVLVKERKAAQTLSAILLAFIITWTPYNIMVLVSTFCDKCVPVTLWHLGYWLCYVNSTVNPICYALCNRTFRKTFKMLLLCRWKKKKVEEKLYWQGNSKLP

SMILES	EC50
O=C1C(=O)N(Cc2ccccc2C(F)(F)F)c2ccc(F)cc21	> 30 µM (inactive)
O=C1C(=O)N(Cc2ccccc2C(F)(F)F)c2c(F)cccc21	> 30 µM (inactive)
COc1cccc(CN2C(=O)C(=O)c3c(Cl)ccc(Cl)c32)c1	7.15 µM
O=C1C(=O)N(Cc2ccc(C(F)(F)F)cc2)c2ccccc21	3.19 µM
O=C1C(=O)N(Cc2ccc(Br)cc2F)c2c(Cl)cccc21	4.66 µM
Cc1ccccc1CN1C(=O)C(=O)c2cc(OC(F)(F)F)ccc21	3.28 µM
O=C1C(=O)N(Cc2ccc(C(F)(F)F)cc2)c2ccc(Cl)cc21	3.3 µM
O=C1C(=O)N(Cc2ccccc2Cl)c2ccc(OC(F)(F)F)cc21	4.07 µM
COc1ccc(CN2C(=O)C(=O)c3cccc(Cl)c32)cc1	3.96 µM
COc1ccc(CN2C(=O)C(=O)c3ccccc32)cc1	> 30 µM (inactive)
O=C1C(=O)N(Cc2ccc(C(F)(F)F)cc2)c2c(F)cccc21	3.26 µM
O=C1C(=O)N(Cc2ccc(Br)cc2F)c2ccc(OC(F)(F)F)cc21	> 30 µM (inactive)

Other lines, results leading:

EC50	SMILES
1.16 µM	COc1ccc(CN2C(=O)C(=O)c3cc(OC(F)(F)F)ccc32)cc1
1.93 µM	O=C1C(=O)N(Cc2ccc(Br)cc2)c2c(F)cccc21
1.7 µM	COc1cccc(CN2C(=O)C(=O)c3cc(OC(F)(F)F)ccc32)c1
1.85 µM	O=C1C(=O)N(Cc2ccc(C(F)(F)F)cc2)c2ccc(OC(F)(F)F)cc21
1.86 µM	O=C1C(=O)N(Cc2ccc(OC(F)(F)F)cc2)c2ccc(OC(F)(F)F)cc21
